Experiment [1] concerns V. cholerae O1 biovar eltor strain N16961. The experiment can be described thus: Growth-curve experiment in M9 minimal medium with different sugars. The class given is cell-based, Vibrio cholerae. The conditions noted are these: M9 minimal medium supplemented with sugar (5 mg ml^−1; all at 5 mM), 37°C. The protocol: V. cholerae O1 biovar eltor strain N16961 was initially grown on LB agar plates. Subsequently, 3 ml M9 minimal medium supplemented with different sugars (5 mg ml^−1) was inoculated with bacteria at an OD600 of 0.07. These cultures were incubated in a 37°C shaker at 225 rev min^−1. Optical densities at A 600 were measured at various time points using a Spectronic GENESYS 20 Visible Spectrophotometer to observe the growth pattern of V. cholerae in different compounds. The different sugars used were Neu5Ac, Neu5Gc, fetuin (a glycoprotein of foetal serum that contains different sugars and sialic acid; Spiro, 1960[▶]), asialofetuin, galactose, glycerol, D-lactic acid, succinate, sucrose, DL-malic acid and fructose, all at 5 mM concentration. Based on the readings, a graph of OD600 was plotted.

For a further experiment, the target named is Pm-SiaP (Pasteurella multocida, UniProt Q9CKB5). The experiment can be described thus: ITC binding of sialic acids to Pm-SiaP. The conditions noted are these: ITC, 25°C. As for the experimental part: (§1) ITC measurements were performed using a MicroCal ITC system (GE Healthcare). The reaction buffer for all of the experiments was 20 mM HEPES pH 8.0, 10 mM NaCl. All titrations were carried out at 25°C. The protein concentration was determined using the Bio-Rad Bradford reagent. The concentrations of SiaP and Neu5Ac/Neu5Gc were varied in the different titrations and each binding experiment was repeated three times. The nonspecific heat released by the dilution of both the sugars and the protein was calculated by averaging the heat liberated during the last 3–5 injections after saturation. This value was then subtracted from the raw heat released during each injection. To derive the stoichiometric values, the data sets were analyzed using a single-site binding model from the Origin ITC analysis software (MicroCal). In this analysis, the values for the stoichiometry, the change in enthalpy (ΔH) and the affinity were fitted using nonlinear least-squares analysis. To derive the values for the affinity, ΔS and ΔH, data sets were globally analyzed using the single-site binding model in SEDPHAT (Vistica et al., 2004[▶]; Dam & Schuck, 2005[▶]).
Sequence of Pm-SiaP (Q9CKB5 22-327): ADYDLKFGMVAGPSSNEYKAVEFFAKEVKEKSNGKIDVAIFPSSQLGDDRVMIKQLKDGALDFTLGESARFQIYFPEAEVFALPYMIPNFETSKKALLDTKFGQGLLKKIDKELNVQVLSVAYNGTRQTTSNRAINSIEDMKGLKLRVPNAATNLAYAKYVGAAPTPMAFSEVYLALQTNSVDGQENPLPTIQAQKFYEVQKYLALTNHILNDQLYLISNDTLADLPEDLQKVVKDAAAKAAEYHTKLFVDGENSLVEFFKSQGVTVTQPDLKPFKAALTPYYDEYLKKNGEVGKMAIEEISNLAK

Another experiment deals with T1, Vc-SiaP (Vibrio cholerae serotype O1, UniProt Q9KR64).
T1 construct: PCR-amplified using the forward primer 5′-[…]-3′; made in house; host or cells: Escherichia coli BL21 (DE3)
T1 sequence (Q9KR64 23-321): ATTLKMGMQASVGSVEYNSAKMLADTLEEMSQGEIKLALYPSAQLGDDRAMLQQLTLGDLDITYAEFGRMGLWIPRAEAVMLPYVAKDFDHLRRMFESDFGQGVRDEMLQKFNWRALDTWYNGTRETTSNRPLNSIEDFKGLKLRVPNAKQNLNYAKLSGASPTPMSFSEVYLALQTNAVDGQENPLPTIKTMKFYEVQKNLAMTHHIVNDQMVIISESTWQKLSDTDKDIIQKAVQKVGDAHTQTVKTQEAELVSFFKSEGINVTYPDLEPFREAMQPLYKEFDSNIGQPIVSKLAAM
The experiment can be described thus: ITC binding of sialic acids to Vc-SiaP. Conditions: 25°C. The protocol:
as §1

In the next experiment the target is Fn-SiaP (Fusobacterium nucleatum subsp. nucleatum, UniProt Q8RDN9). Nature of the experiment: ITC binding of sialic acids to Fn-SiaP. The conditions noted are these: 25°C. As for the experimental part:
as §1

Entries after “also recorded” stand apart in the source; their conditions may differ.

Sequence of Fn-SiaP (Q8RDN9 24-327): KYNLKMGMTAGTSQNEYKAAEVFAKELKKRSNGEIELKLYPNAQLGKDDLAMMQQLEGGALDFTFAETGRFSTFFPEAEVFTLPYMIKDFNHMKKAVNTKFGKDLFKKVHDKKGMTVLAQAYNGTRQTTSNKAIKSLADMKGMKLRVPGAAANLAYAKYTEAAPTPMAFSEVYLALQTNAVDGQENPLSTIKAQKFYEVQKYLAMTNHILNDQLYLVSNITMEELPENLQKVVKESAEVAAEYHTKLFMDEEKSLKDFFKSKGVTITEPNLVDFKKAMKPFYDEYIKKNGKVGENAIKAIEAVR

With `O=C[C@H](O)[C@@H](O)[C@@H](O)[C@H](O)CO` [galactose], in experiment [1], the “growth of V. cholerae in the presence of the compound (OD600)” value (“growth of V. cholerae” for short) was “No growth”.
The same measure, in the same setting: the value for `OCC(O)CO` [glycerol] was “No growth”; that for `O=C(CO)[C@@H](O)[C@H](O)[C@H](O)CO` [fructose] was “Little growth”.
With `O=C(O)CCC(=O)O` [succinate], the “growth of V. cholerae” value in experiment [1] is “Little growth”.
Regarding `C[C@@H](O)C(=O)O` [D-lactic acid], the “growth of V. cholerae” value in experiment [1] is “No growth”.
Take `O=C(CO)N[C@H]1[C@H]([C@H](O)[C@H](O)CO)OC(O)(C(=O)O)C[C@@H]1O` (stereo partly shown) [Neu5Gc]: in experiment [1], the “growth of V. cholerae” value is “No growth; also recorded: cannot use Neu5Gc as a carbon source”. The “H (change in enthalpy, ΔH)” value at Pm-SiaP (20 mM HEPES pH 8.0, 10 mM NaCl) was 7469 calmol^1; at Vc-SiaP (20 mM HEPES pH 8.0, 10 mM NaCl), 5200 calmol^1; on Fn-SiaP (20 mM HEPES pH 8.0, 10 mM NaCl), 12074 calmol^1. The “T S (entropic component)” value worked out at 2777.3 calmol^1 at Pm-SiaP (20 mM HEPES pH 8.0, 10 mM NaCl); 1127.6 calmol^1 on Vc-SiaP (20 mM HEPES pH 8.0, 10 mM NaCl); 2059.4 calmol^1 at Fn-SiaP (20 mM HEPES pH 8.0, 10 mM NaCl). Further, the Kd worked out at 30.7 nM at Pm-SiaP (20 mM HEPES pH 8.0, 10 mM NaCl, read-out: K d); 1090 nM at Vc-SiaP (20 mM HEPES pH 8.0, 10 mM NaCl); 45.7 nM at Fn-SiaP (20 mM HEPES pH 8.0, 10 mM NaCl).
Turning to `CC(=O)N[C@H]1[C@H]([C@H](O)[C@H](O)CO)OC(C(=O)O)=C[C@@H]1O` [Neu5Ac2en, N-acetyl-2,3-dehydro-2-deoxyneuraminic acid], the “interaction measured by ITC” value on Pm-SiaP, on Vc-SiaP and on Fn-SiaP was “no measurable interaction” in each case.
Take `O=C(O)CC(O)C(=O)O` (racemic) [DL-malic acid]: the “growth of V. cholerae” value in experiment [1] is “Little growth”.
The same measure, in the same setting: the value for `OC[C@H]1O[C@@](CO)(O[C@H]2O[C@H](CO)[C@@H](O)[C@H](O)[C@H]2O)[C@@H](O)[C@@H]1O` [sucrose] was “Little growth”.

B1: fetuin: a glycoprotein of foetal serum that contains different sugars and sialic acid (protein, UniProt P12763 19-359, looked up)
Alpha-2-HS-glycoprotein: IPLDPVAGYKEPACDDPDTEQAALAAVDYINKHLPRGYKHTLNQIDSVKVWPRRPTGEVYDIEIDTLETTCHVLDPTPLANCSVRQQTQHAVEGDCDIHVLKQDGQFSVLFTKCDSSPDSAEDVRKLCPDCPLLAPLNDSRVVHAVEVALATFNAESNGSYLQLVEISRAQFVPLPVSVSVEFAVAATDCIAKEVVDPTKCNLLAEKQYGFCKGSVIQKALGGEDVRVTCTLFQTQPVIPQPQPDGAEAEAPSAVPDAAGPTPSAAGPPVASVVVGPSVVAVPLPLHRAHYDLRHTFSGVASVESSSGEAFHVGKTPIVGQPSIPGGPVRLCPGRIRYFKI
As for B1, the “growth of V. cholerae” value in experiment [1] was “grows”.

B2: asialofetunin: asialofetuin, used as a carbon source in the growth experiment (protein, UniProt P12763 19-359, looked up)
Alpha-2-HS-glycoprotein: IPLDPVAGYKEPACDDPDTEQAALAAVDYINKHLPRGYKHTLNQIDSVKVWPRRPTGEVYDIEIDTLETTCHVLDPTPLANCSVRQQTQHAVEGDCDIHVLKQDGQFSVLFTKCDSSPDSAEDVRKLCPDCPLLAPLNDSRVVHAVEVALATFNAESNGSYLQLVEISRAQFVPLPVSVSVEFAVAATDCIAKEVVDPTKCNLLAEKQYGFCKGSVIQKALGGEDVRVTCTLFQTQPVIPQPQPDGAEAEAPSAVPDAAGPTPSAAGPPVASVVVGPSVVAVPLPLHRAHYDLRHTFSGVASVESSSGEAFHVGKTPIVGQPSIPGGPVRLCPGRIRYFKI
modifications: desialylated
notes: asialofetuin, used as a carbon source in the growth experiment
B2: the “growth of V. cholerae” value in experiment [1] is listed as “No growth”.

The record behind these values is publication PMC4089482, “Bacterial periplasmic sialic acid-binding proteins exhibit a conserved binding site” (Acta Crystallographica Section D: Biological Crystallography, 2014).
